The subject of assay [1] is human sperm. Kind of assay: Sperm motility assay by CASA (Example 1). It counts as cell-based. The settings on record: for EC50: read-out: EC50, sperm motility. As for the experimental part:
All donor specimens were obtained after informed consent and in compliance with the guidelines of the Wayne Hughes Institute Institutional Review Board. Motile sperm (≧10×10^6/ml), were suspended in 0.5 ml of Biggers, Whitten, and Whittingam's medium (BWW) containing 25 mM HEPES (Irvine Scientific, Santa Ana, Calif.), and 0.3% bovine serum albumin (BSA; Fraction V, Sigma Chemical Co, St. Louis, Mo.) in the presence and absence of serial two-fold dilutions of test substance (300 μM to 4.6 μm) in 1% DMSO. The stock solutions of synthetic WHI compounds were prepared in DMSO (10 mg/ml) and diluted in DMSO to yield the desired concentrations. Corresponding volume of DMSO (1%) was added to control tubes. N-9 was diluted in BWW-0.3% BSA (pH 7.4) to yield the desired concentrations (4.6 to 300 μM). After 3 hours of incubation at 37° C., the percentage of motile sperm was evaluated by computer-assisted sperm analysis (CASA) as described [L. J. Burkman, Fertil. Steril. […] The percent motilities were compared with sham-treated control suspensions of motile sperm. […] Non-linear regression analyses were used to determine the EC50 values from the concentration effect curves using GraphPad PRISM software (San Diego, Calif.).
For evaluating sperm motion kinematics using CASA, 4 μl each of sperm suspension was loaded into two 20-μm Microcell chambers (Conception Technologies) that was placed onto a counting chamber at 37° C. At least 5-8 fields per chamber were scanned for analysis using a Hamilton Thorne Integrated Visual Optical System (IVOS), version 10 instrument (Hamilton Thorne Research Inc., Danvers, Mass.). Each field was recorded for 30 seconds. […] The performance of the analyzer was periodically checked using the play-back function. The attributes of sperm kinematic parameters evaluated included numbers of motile (MOT) and progressively (PRG) motile sperm; curvilinear velocity (VCL; a measure of the total distance traveled by a given sperm during the acquisition divided by the time elapsed); average path velocity (VAP; the spatially averaged path that eliminates the wobble of the sperm head), straight line velocity (VSL; the straight-line distance from beginning to end of track divided by time taken), beat cross frequency (BCF, frequency of sperm head crossing sperm average path), the amplitude of lateral head displacement (ALH; the mean width of sperm head oscillation) and the derivatives, straightness ([…]); linearity (LIN=100×VSL/VCL; departure of sperm track from a straight line). Data from each individual cell track were recorded and analyzed. At least 200 motile sperm were analyzed for each aliquot sampled.

Assay [2] has as its system human sperm. Kind of assay: cells. It counts as cell-based. As for the experimental part:
All donor specimens were obtained after informed consent and in compliance with the guidelines of the Hughes Institute Institutional Review Board. To evaluate the spermicidal effects of ZDV derivatives, highly motile fraction of pooled donor sperm (n 8) were prepared from liquefied normospermic semen by discontinuous (90-45%) gradient centrifugation using Enhance-S-Plus (Conception technologies, San Diego, Calif.) cell isolation medium as previously described. [D'Cruz O J, et al., Biol Reprod 1999; 60:1419-1428; D'Cruz O J, et al., Biol Reprod 1995; 53:118-1130; and D'Cruz O J, et al., Biol Reprod 1998; 58:1515-1526]. The resulting pellet was washed twice and resuspended in 1-ml of Biggers, Whitten, and Whittingam's medium (BWW) (Irvine Scientific, Santa Ana, Calif.) containing 3% BSA (fraction V; Sigma Chemical Co., St. Louis, Mo.). One-ml aliquots of the sperm suspension were centrifuged (500× g, 5 min) and incubated at 45° for 90 min at 37° C. in 5% CO2 atmosphere. The supernatant containing primarily motile sperm was aspirated carefully, washed once in BWW medium containing 25 mM HEPES and 0.3% BSA and resuspended in the same medium. Pooled motile sperm (=10×10^6/ml) prepared from 3-5 donors were suspended in 1-ml of BWW-0.3% BSA in the presence and absence of serial 2-fold dilutions of test substance (1.9 μm to 500 μM) in 0.5% dimethyl sulfoxide (DMSO). The stock solutions of synthetic compounds were prepared in DMSO (100 mM) and diluted in medium to yield the desired concentrations. A corresponding volume of DMSO (0.5%) was added to control tubes. After 3 hour incubation at 37° C., the percentage of motile sperm was evaluated by computer-assisted sperm motion analysis (CASA) [D'Cruz O J, et al., Biol Reprod 1998; 58:1515-1526; D'Cruz O J, et al., Mol Hum Reprod 1998; 4:683-693; D'Cruz O J, et al., Biol Reprod 1999; 60:435-444]. The percentage motilities were compared with those of sham-treated control suspensions of motile sperm. The spermicidal activity of test compounds was expressed as the mean EC50 values (the final concentration of the compound in the medium that decreases the proportion of motile sperm by 50%) calculated from three independent experiments.
For CASA, 4 μl of each sperm suspension were loaded into a 20-μm Microcell chamber at 37° C. Eight to ten fields per chamber were scanned for analysis using a Hamilton Thome Integrated Visual Optical System (IVOS), version 10 instrument (Hamilton Thome Research Inc., Danvers, Mass.) [see, D'Cruz O J, et al. Biol Reprod 1998; 58:1515-1526; and D'Cruz O J, et al., Mol Hum Reprod 1998; 4:683-693; and D'Cruz O J, et al., Biol Reprod 1999; 60:435-444]. Each field was recorded for 30 sec. The computer calibrations were set at 30 frames at a frame rate of 30/s. Other settings were as follows: minimum contrast 8; minimum size 6; low-size gate, 1.0; high-size gate, 2.9; low-intensity gate, 0.6; high-intensity gate, 1.4; phase-contrast illumination; low path velocity at 10 μm/s, and threshold straightness at 80%; magnification factor, 1.95.
The sperm kinematic parameters that were determined included numbers of motile (MOT) and progressively (PRG) motile sperm; curvilinear velocity (VCL; a measure of the total distance traveled by a given sperm during the acquisition divided by the time elapsed); average path velocity (VAP; the spatially averaged path that eliminates the wobble of the sperm head), straight line velocity (VSL; the straight-line distance from beginning to end of track divided by time taken), beat cross frequency (BCF, frequency of sperm head crossing sperm average path), the amplitude of lateral head displacement (ALH; the mean width of sperm head oscillation), straightness (STR=VSL/VAP×100); linearity (LIN=VSL/VCL×100; departure of sperm track from a straight line). Data from each individual cell track were recorded and analyzed. At least 200 motile sperm were analyzed for each aliquot sampled.

Setting [3] is: 3 hour incubation, mean ± SD of three experiments, read-out: EC50 (sperm motility, CASA) (converted).
The mark [4] stands for this setting: Table 4, mean of three experiments, read-out: Sperm EC50.
The mark [5] stands for this setting: 3 hours incubation at 37° C., CASA.

In general, EC50 refers to the concentration at which the effect is half-maximal. In the case of `CCCCCCCCCc1ccc(OCCOCCOCCOCCOCCOCCOCCOCCOCCO)cc1` [Compound N-9, nonoxynol-9, reference compound], the EC50 with human sperm [1] (Homo sapiens, Sperm, 3 hours incubation at 37° C., CASA) is 81 µM; in the assay with human sperm [2] (Homo sapiens, Sperm, Table 4, mean of three experiments, read-out: Sperm EC50) it was 81 µM.
On to “5-Bromo-6-methoxy-5,6-dihydro-3′-azidothymidine 5′-[Phenyl methoxyalaninyl phosphate] [WHI-04]”, for which, in the assay with human sperm [1] (compared with related derivatives), the “spermicidal activity, in words” value is “improved spermicidal activity over WHI-01”. The concentration for a half-maximal effect (EC50) in the assay on human sperm [2] (setting [3]) was 35 ± 5 µM; with human sperm [2] (setting [4]), 35 µM.
For the compound `COC(=O)C(C)NP(=O)(OCC1OC(N2C(=O)NC(=O)C(C)(Br)C2OC)CC1N=[N+]=[N-])Oc1ccc(Br)cc1` (centres unmarked) [WHI-07, 5-Bromo-6-methoxy-5,6-dihydro-3′-azidothymidine-5′-(p-Bromophenyl Methoxyalaninyl Phosphate)], the EC50 was 6 µM with human sperm [1] (Homo sapiens, Sperm, 3 h); 5 µM in the assay with human sperm [2] (Homo sapiens, Sperm, 3 h, read-out: EC50 (sperm motility, CASA)); 5 µM in the assay on human sperm [2] (Homo sapiens, Sperm, read-out: Sperm EC50).
With “5-bromo-6-methoxy-5,6-dihydro-3 ′-azidothymidine-5 ′-(p-methoxyphenyl) methoxyalaninyl phosphate [WHI-05]”, the 50% effective concentration (EC50) in the assay on human sperm [1] (setting [5]) was 29 µM; with human sperm [2] (setting [3]) it was 24 µM; with human sperm [2] (setting [4]), 24 µM.
Consider “5-Bromo-6-methoxy-5,6-dihydro-3′-azidothymidine-5′-[(p-Fluorophenyl methoxyalaninyl phosphate] [WHI-06]”, for which the concentration giving a half-maximal response (EC50) in the assay with human sperm [1] (setting [5]), with human sperm [2] (setting [3]) and in the assay with human sperm [2] (setting [4]) was 15 µM throughout.

Values taken from US6482805B2 (Parker Hughes Institute, priority 1998, dated 2002).
